Measured values: PubChem BioAssay (NCI)
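Briefly, cells in 96-well plates were exposed to five compound concentrations for 48 h, and endpoints were estimated by linear interpolation. GI50 marks 50% less growth. TGI: total growth inhibition.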

What was measured:
Experiment in all cases: inhibition of tumour cell growth, NCI panel, 48 h
[1] = tested on: DU-145 prostate
[2] = tested on: UO-31 renal
[3] = tested on: A498 renal
[4] = tested on: OVCAR-4 ovarian
[5] = tested on: HS 578T breast
[6] = tested on: HCC-2998 colon
[7] = tested on: SW-620 colon
[8] = tested on: IGROV1 ovarian
[9] = tested on: HOP-92 NSCLC
[10] = tested on: HCT-116 colon
[11] = tested on: UACC-62 melanoma
[12] = tested on: OVCAR-5 ovarian
[13] = tested on: NCI-H522 lung
[14] = tested on: MDA-MB-435
[15] = tested on: HT29 colon
[16] = tested on: RPMI-8226 leukemia
[17] = tested on: HL-60(TB) leukemia
[18] = tested on: SF-295 CNS
[19] = tested on: EKVX NSCLC
[20] = tested on: ACHN renal
[21] = tested on: SF-268 CNS
[22] = tested on: HOP-62 NSCLC
[23] = tested on: SF-539 CNS
[24] = tested on: SK-MEL-5 melanoma
[25] = tested on: SNB-19 CNS
[26] = tested on: RXF 393 renal
[27] = tested on: MALME-3M melanoma
[28] = tested on: NCI-H460 lung
[29] = tested on: A549 NSCLC
[30] = tested on: SK-OV-3 ovarian
[31] = tested on: OVCAR-8 ovarian
[32] = tested on: NCI-H226 lung
[33] = tested on: MOLT-4 leukemia
[34] = tested on: COLO 205 colon
[35] = tested on: NCI-H23 lung
[36] = tested on: K-562 leukemia
[37] = tested on: UACC-257 melanoma
[38] = tested on: SN12C renal
[39] = tested on: M14 melanoma
[40] = tested on: SK-MEL-28 melanoma
[41] = tested on: SNB-75 CNS
[42] = tested on: HCT-15 colon
[43] = tested on: SR leukemia
[44] = tested on: U251 CNS
[45] = tested on: BT-549 breast
[46] = tested on: MCF7 breast
[47] = tested on: 786-0 renal
[48] = tested on: OVCAR-3 ovarian
[49] = tested on: NCI/ADR-RES ovarian
[50] = tested on: LOX IMVI melanoma
[51] = tested on: MDA-MB-231 breast
[52] = tested on: PC-3 prostate
[53] = tested on: KM12 colon
[54] = tested on: CCRF-CEM leukemia
[55] = tested on: T-47D breast
[56] = tested on: SK-MEL-2 melanoma
[57] = tested on: TK-10 renal
[58] = tested on: MDA-N
[59] = tested on: CAKI-1 renal

SMILES: C#Cc1cccc(Nc2ncnc3ccc(-c4cncc(NS(C)(=O)=O)c4)cc23)c1
- GI50 [1]: 2.07 µM
- TGI [1]: 12.8 µM
- GI50 [2]: 1.53 µM
- TGI [2]: 14.5 µM
- GI50 [3]: 0.372 µM
- TGI [3]: 2.04 µM
- GI50 [4]: 3.59 µM
- TGI [4]: 75.9 µM
- GI50 [5]: 1.1 µM
- TGI [5]: 4.65 µM
- GI50 [6]: 2.67 µM
- TGI [6]: 11.8 µM
- GI50 [7]: 2.36 µM
- TGI [7]: 6.31 µM
- GI50 [8]: 0.309 µM
- TGI [8]: 1.68 µM
- GI50 [9]: 0.447 µM
- TGI [9]: 3.73 µM
- GI50 [10]: 1.45 µM
- TGI [10]: 3.29 µM
- GI50 [11]: 1.66 µM
- TGI [11]: 5.69 µM
- GI50 [12]: 1.07 µM
- TGI [12]: 16.5 µM
- GI50 [13]: 1.06 µM
- TGI [13]: 3.28 µM
- GI50 [14]: 2.94 µM
- TGI [14]: 13.7 µM
- GI50 [15]: 1.86 µM
- TGI [15]: 6.28 µM
- GI50 [16]: 2.18 µM
- TGI [16]: 4.93 µM
- GI50 [17]: 1.87 µM
- TGI [17]: 6.83 µM
- GI50 [18]: 2.47 µM
- TGI [18]: 10.5 µM
- GI50 [19]: 1.12 µM
- TGI [19]: 4.6 µM
- GI50 [20]: 0.979 µM
- TGI [20]: 49.6 µM
- GI50 [21]: 1.92 µM
- TGI [21]: 11.5 µM
- GI50 [22]: 1.84 µM
- TGI [22]: 14.1 µM
- GI50 [23]: 1.46 µM
- TGI [23]: 4.96 µM
- GI50 [24]: 1.63 µM
- TGI [24]: 3.06 µM
- GI50 [25]: 1.98 µM
- TGI [25]: 16.2 µM
- GI50 [26]: 1.68 µM
- TGI [26]: 4.84 µM
- GI50 [27]: 1.11 µM
- TGI [27]: 9.13 µM
- GI50 [28]: 3.46 µM
- TGI [28]: 13.6 µM
- GI50 [29]: 3.63 µM
- TGI [29]: 14.9 µM
- GI50 [30]: 1.89 µM
- TGI [30]: 5.71 µM
- GI50 [31]: 3.7 µM
- TGI [31]: 28.1 µM
- GI50 [32]: 2.99 µM
- TGI [32]: 16.8 µM
- GI50 [33]: 1.41 µM
- TGI [33]: 4.45 µM
- GI50 [34]: 1.68 µM
- TGI [34]: 3.94 µM
- GI50 [35]: 2.36 µM
- TGI [35]: 10.8 µM
- GI50 [36]: 3.79 µM
- TGI [36]: 19.5 µM
- GI50 [37]: 3.7 µM
- TGI [37]: 16.2 µM
- GI50 [38]: 2.51 µM
- TGI [38]: 19.7 µM
- GI50 [39]: 2.33 µM
- TGI [39]: 11.2 µM
- GI50 [40]: 1.47 µM
- TGI [40]: 14.1 µM
- GI50 [41]: 0.524 µM
- TGI [41]: 5.09 µM
- GI50 [42]: 3.47 µM
- TGI [42]: 16.7 µM
- GI50 [43]: 1.37 µM
- TGI [43]: 5.74 µM
- GI50 [44]: 2.5 µM
- TGI [44]: 10.3 µM
- GI50 [45]: 1.07 µM
- TGI [45]: 4.55 µM
- GI50 [46]: 1.5 µM
- TGI [46]: 8.71 µM
- GI50 [47]: 1.77 µM
- TGI [47]: 6.74 µM
- GI50 [48]: 1.15 µM
- TGI [48]: 3.25 µM
- GI50 [49]: 21.7 µM
- TGI [49]: > 100 µM
- GI50 [50]: 1.26 µM
- TGI [50]: 2.86 µM
- GI50 [51]: 2.2 µM
- TGI [51]: 8.06 µM
- GI50 [52]: 2.21 µM
- TGI [52]: 9.95 µM
- GI50 [53]: 2.33 µM
- TGI [53]: 6.52 µM
- GI50 [54]: 0.82 µM
- TGI [54]: 7.31 µM
- GI50 [55]: 0.209 µM
- TGI [55]: 2.77 µM
- GI50 [56]: 0.845 µM
- TGI [56]: 2.2 µM

SMILES: CCOc1ccc(NC(=S)/N=C/C(C(=O)Nc2ccccc2C)=C(\C)O)cc1
- TGI [1]: > 100 µM
- TGI [2]: > 100 µM
- TGI [4]: > 100 µM
- TGI [57]: > 100 µM
- TGI [5]: > 100 µM
- TGI [6]: > 100 µM
- TGI [7]: > 100 µM
- TGI [8]: > 100 µM
- TGI [10]: > 100 µM
- TGI [58]: > 100 µM
- TGI [59]: > 100 µM
- TGI [11]: > 100 µM
- TGI [12]: > 100 µM
- TGI [13]: > 100 µM
- TGI [14]: > 100 µM
- TGI [15]: > 100 µM
- TGI [16]: > 100 µM
- TGI [17]: > 100 µM
- TGI [18]: > 100 µM
- TGI [19]: > 100 µM
- TGI [20]: > 100 µM
- TGI [21]: > 100 µM
- TGI [22]: > 100 µM
- TGI [23]: > 100 µM
- TGI [24]: > 100 µM
- TGI [25]: > 100 µM
- TGI [26]: > 100 µM
- TGI [28]: > 100 µM
- TGI [29]: > 100 µM
- TGI [30]: > 100 µM
- TGI [31]: > 100 µM
- TGI [32]: > 100 µM
- TGI [33]: > 100 µM
- TGI [34]: > 100 µM
- TGI [35]: > 100 µM
- TGI [36]: > 100 µM
- TGI [37]: > 100 µM
- TGI [38]: > 100 µM
- TGI [39]: > 100 µM
- TGI [42]: > 100 µM
- TGI [44]: > 100 µM
- TGI [45]: > 100 µM
- TGI [46]: > 100 µM
- TGI [47]: > 100 µM
- TGI [48]: > 100 µM
- TGI [49]: > 100 µM
- TGI [50]: > 100 µM
- TGI [51]: > 100 µM
- TGI [52]: > 100 µM
- TGI [53]: > 100 µM
- TGI [55]: > 100 µM
- TGI [56]: > 100 µM

SMILES: COC(=O)C1(Cc2ccccc2)Cc2ccccc2C1=O (stereo not given)
- TGI [1]: > 100 µM
- TGI [2]: > 100 µM
- TGI [4]: > 100 µM
- TGI [57]: > 100 µM
- TGI [5]: > 100 µM
- TGI [6]: > 100 µM
- TGI [7]: > 100 µM
- TGI [8]: > 100 µM
- TGI [9]: > 100 µM
- TGI [10]: > 100 µM
- TGI [58]: 94.6 µM
- TGI [59]: > 100 µM
- TGI [11]: > 100 µM
- TGI [12]: > 100 µM
- TGI [14]: 53.4 µM
- TGI [15]: > 100 µM
- TGI [16]: > 100 µM
- TGI [17]: 51.1 µM
- TGI [18]: > 100 µM
- TGI [19]: > 100 µM
- TGI [20]: > 100 µM
- TGI [21]: > 100 µM
- TGI [22]: > 100 µM
- TGI [23]: > 100 µM
- TGI [24]: 44 µM
- TGI [27]: 39.3 µM
- TGI [28]: > 100 µM
- TGI [29]: > 100 µM
- TGI [30]: > 100 µM
- TGI [31]: > 100 µM
- TGI [32]: > 100 µM
- TGI [33]: 90.9 µM
- TGI [34]: > 100 µM
- TGI [35]: > 100 µM
- TGI [36]: > 100 µM
- TGI [37]: > 100 µM
- TGI [38]: > 100 µM
- TGI [39]: > 100 µM
- TGI [40]: > 100 µM
- TGI [41]: > 100 µM
- TGI [42]: > 100 µM
- TGI [43]: 78.3 µM
- TGI [44]: 85.9 µM
- TGI [46]: > 100 µM
- TGI [47]: > 100 µM
- TGI [48]: > 100 µM
- TGI [49]: 72.3 µM
- TGI [50]: > 100 µM
- TGI [51]: > 100 µM
- TGI [52]: > 100 µM
- TGI [53]: > 100 µM
- TGI [54]: > 100 µM
- TGI [55]: > 100 µM
- TGI [56]: 65.5 µM

SMILES: C=CC(C)(C)n1cc(C2=C(O)C(=O)C(c3cn(C(C)(C)C=C)c4ccccc34)=C(OC(C)=O)C2=O)c2ccccc21
- TGI [1]: 2.23 µM
- TGI [2]: 2.3 µM
- TGI [3]: 2.1 µM
- TGI [4]: 2.64 µM
- TGI [6]: 2.16 µM
- TGI [8]: 1.65 µM
- TGI [9]: 1.95 µM
- TGI [58]: 1.99 µM
- TGI [59]: 2.28 µM
- TGI [11]: 2.18 µM
- TGI [12]: 3.08 µM
- TGI [13]: 2.97 µM
- TGI [14]: 1.74 µM
- TGI [16]: 3.88 µM
- TGI [18]: 1.88 µM
- TGI [20]: 2.55 µM
- TGI [22]: 1.94 µM
- TGI [24]: 1.87 µM
- TGI [26]: 2.38 µM
- TGI [27]: 3.06 µM
- TGI [30]: 2.85 µM
- TGI [34]: 3.07 µM
- TGI [36]: 2.17 µM
- TGI [37]: 2.19 µM
- TGI [40]: 2.5 µM
- TGI [41]: 1.55 µM
- TGI [47]: 2.8 µM
- TGI [48]: 2.25 µM
- TGI [50]: 1.72 µM
- TGI [51]: 2.63 µM
- TGI [52]: 1.99 µM
- TGI [53]: 1.97 µM
